# Laboratory results taken from patent US11401278B2, “Macrocyclic indole derivatives” (The Broad Institute, Inc., priority 2017, dated 2022).
# Counter-ions that a name gives are not always drawn.
# Molecular target: MCL-1 (Homo sapiens (Human), UniProt Q07820, K194A/K197A/R201A)
# Assay: Protein-protein interaction assay MCL-1/Noxa BH3 peptide (MCL-1 assay, TR-FRET)
# Type: binding
# Settings: MBP-MCL-1 / Noxa BH3 peptide, median
# Summary of the method: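 MBP-fused MCL-1 (aa 173-329, 1 nM) was pre-incubated with compound for 10 min at 22° C, then biotinylated Noxa BH3 peptide (1 nM) was added with anti-MBP-Eu cryptate and streptavidin-XL665. Incubation was 1 h at 22° C, then overnight at 4° C, in Tris pH 7 buffer. The 665/620 nm ratio over 11 concentrations (0.1 nM-20 μM) gave IC50 by 4-parameter fit.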
# MCL-1, sequence (Q07820 whole entry K194A/K197A/R201A, looked up): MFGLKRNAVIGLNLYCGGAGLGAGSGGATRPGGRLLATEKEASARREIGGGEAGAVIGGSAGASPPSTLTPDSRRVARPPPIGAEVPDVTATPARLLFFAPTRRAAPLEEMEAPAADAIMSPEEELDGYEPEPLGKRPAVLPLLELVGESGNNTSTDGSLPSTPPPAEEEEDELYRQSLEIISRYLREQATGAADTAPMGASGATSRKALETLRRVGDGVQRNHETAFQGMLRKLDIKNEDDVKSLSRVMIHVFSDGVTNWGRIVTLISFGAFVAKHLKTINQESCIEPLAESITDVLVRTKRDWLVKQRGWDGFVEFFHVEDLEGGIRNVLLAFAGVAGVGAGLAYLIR
row,IC50,Compound
1,0.93 nM,"Cc1c2c(nn1C)C(CCN1CCOCC1)N(C)S(=O)(=O)CCCn1c(C(=O)O)c(CCCOc3cccc4cc(F)ccc34)c3ccc(Cl)c-2c31 (racemic) [Example 48, (rac)-4-chloro-7-{3-[(6-fluoro-1-naphthyl)oxy]propyl}-2,3,14-trimethyl-15-(rac)-[2-(morpholin-4-yl)ethyl]-11,12,14,15-tetrahydro-2H,10H-pyrazolo[3′,4′:4,5][1,2,8]thiadiazacycloundecino[6,7,8-hi]indole-8-carboxylic acid 13,13-dioxide (Mixture of Stereoisomers)]"
2,3.2 nM,"COc1ccc(CN2Cc3nn(C)c(C)c3-c3c(Cl)ccc4c(CCCOc5cccc6cc(F)ccc56)c(C(=O)O)n(c34)CCCS2(=O)=O)c(OC)c1 (racemic) [Example 49, (rac)-4-chloro-14-(2,4-dimethoxybenzyl)-7-{3-[(6-fluoro-1-naphthyl)oxy]propyl}-2,3-dimethyl-11,12,14,15-tetrahydro-2H,10H-pyrazolo[3′,4′:4,5][1,2,8]thiadiazacycloundecino[6,7,8-hi]indole-8-carboxylic acid 13,13-dioxide]"
3,0.74 nM,"Cc1c2c(nn1C)CNS(=O)(=O)CCCn1c(C(=O)O)c(CCCOc3cccc4cc(F)ccc34)c3ccc(Cl)c-2c31 (racemic) [Example 50, (rac)-4-chloro-7-{3-[(6-fluoro-1-naphthyl)oxy]propyl}-2,3-dimethyl-11,12,14,15-tetrahydro-2H,10H-pyrazolo[3′,4′:4,5][1,2,8]thiadiazacycloundecino[6,7,8-hi]indole-8-carboxylic acid 13,13-dioxide]"
4,1.7 nM,"CCc1c2c(nn1C)CN(C1CC1)S(=O)(=O)CCCn1c(C(=O)O)c(CCCOc3cccc4cc(F)ccc34)c3ccc(Cl)c-2c31 (racemic) [Example 53, (rac)-4-chloro-14-cyclopropyl-3-ethyl-7-{3-[(6-fluoro-1-naphthyl)oxy]propyl}-2-methyl-11,12,14,15-tetrahydro-2H,10H-pyrazolo[3′,4′:4,5][1,2,8]thiadiazacycloundecino[6,7,8-hi]indole-8-carboxylic acid 13,13-dioxide]"
5,2.1 nM,"CCc1c2c(nn1C)CN(CC)S(=O)(=O)CCCn1c(C(=O)O)c(CCCOc3cccc4cc(F)ccc34)c3ccc(Cl)c-2c31 (racemic) [Example 56, (rac)-4-chloro-3,14-diethyl-7-{3-[(6-fluoro-1-naphthyl)oxy]propyl}-2-methyl-11,12,14,15-tetrahydro-2H,10H-pyrazolo[3′,4′:4,5][1,2,8]thiadiazacycloundecino[6,7,8-hi]indole-8-carboxylic acid 13,13-dioxide]"
6,1.9 nM,"CCc1c2c(nn1C)C(CCC1CCOCC1)N(C)S(=O)(=O)CCCn1c(C(=O)O)c(CCCOc3cccc4cc(F)ccc34)c3ccc(Cl)c-2c31 (racemic) [Example 59, (rac)-4-chloro-3-ethyl-7-{3-[(6-fluoro-1-naphthyl)oxy]propyl}-2,14-dimethyl-15-[2-(tetrahydro-2H-pyran-4-yl)ethyl]-11,12,14,15-tetrahydro-2H,10H-pyrazolo[3′,4′:4,5][1,2,8]thiadiazacycloundecino[6,7,8-hi]indole-8-carboxylic acid 13,13-dioxide (Racemate 2)]"
7,2.4 nM,"CCc1c2c(nn1C)C(CCC1CCOCC1)N(C)S(=O)(=O)CCCn1c(C(=O)O)c(CCCOc3cccc4cc(F)ccc34)c3ccc(Cl)c-2c31 (racemic) [Example 60, (rac)-4-chloro-3-ethyl-7-{3-[(6-fluoro-1-naphthyl)oxy]propyl}-2,14-dimethyl-15-[2-(tetrahydro-2H-pyran-4-yl)ethyl]-11,12,14,15-tetrahydro-2H,10H-pyrazolo[3′,4′:4,5][1,2,8]thiadiazacycloundecino[6,7,8-hi]indole-8-carboxylic acid 13,13-dioxide (Racemate 1)]"
8,0.94 nM,"Cc1c2c(nn1C)C(CCN1CCOCC1)N(C)S(=O)(=O)CCCn1c(C(=O)O)c(CCCOc3cccc4cc(F)ccc34)c3ccc(Cl)c-2c31 (racemic) [Example 65, (rac)-4-chloro-7-{3-[(6-fluoronaphthalen-1-yl)oxy]propyl}-2,3,14-trimethyl-15-(rac)-[2-(morpholin-4-yl)ethyl]-13,13-dioxo-10,11,12,13,14,15-hexahydro-2H-13lambda^6-pyrazolo[3′,4′:4,5][1,2,8]thiadiazacycloundecino[6,7,8-hi]indole-8-carboxylic acid (Mixture of Stereoisomers)]"

# Continued, compound first:
row,Compound,IC50
1,"Cc1c2c(nn1C)C(CCN1CCOCC1)N(C)S(=O)(=O)CCCn1c(C(=O)O)c(CCCOc3cccc4ccccc34)c3cccc-2c31 (racemic) [Example 44, (rac)-2,3,14-trimethyl-15-[2-(rac)-(morpholin-4-yl)ethyl]-7-[3-(1-naphthyloxy)propyl]-11,12,14,15-tetrahydro-2H,10H-pyrazolo[3′,4′:4,5][1,2,8]thiadiazacycloundecino[6,7,8-hi]indole-8-carboxylic acid 13,13-dioxide (Mixture of Stereoisomers)]",3 nM
2,"Cc1c2c(nn1C)C(N1CCOCC1)CCN(C)S(=O)(=O)CCCn1c(C(=O)O)c(CCCOc3cccc4cc(F)ccc34)c3ccc(Cl)c-2c31 (racemic) [Example 47, (rac)-15-chloro-1-(3-((6-fluoronaphthalen-1-yl)oxy)propyl)-8,13,14-trimethyl-11-(rac)-morpholino-5,6,9,10,11,13-hexahydro-4H,8H-pyrazolo[3′,4′:6,7][1]thia[2,10]diazacyclotridecino[8,9,10-hi]indole-2-carboxylic acid 7,7-dioxide (Mixture of Stereoisomers)]",0.8 nM
3,"CCc1c2c(nn1C)C(CCN1CCOCC1)N(C)S(=O)(=O)CCCn1c(C(=O)O)c(CCCOc3cccc4cc(F)ccc34)c3ccc(Cl)c-2c31 (racemic) [Example 73, (rac)-(4-chloro-3-ethyl-7-{3-[(6-fluoronaphthalen-1-yl)oxy]propyl}-2,14-dimethyl-15-[2-(morpholin-4-yl)ethyl]-13,13-dioxo-10,11,12,13,14,15-hexahydro-2H-13lambda^6-pyrazolo[3′,4′:4,5][1,2,8]thiadiazacycloundecino[6,7,8-hi]indole-8-carboxylic acid (Racemate 1)]",0.34 nM
4,"Cc1c2c(nn1C)CN(C)S(=O)(=O)CCCn1c(C(=O)O)c(CCCOc3cccc4ccccc34)c3ccc(Cl)c-2c31 (single isomer, unassigned; enantiomer 1) [Example 5, 4-Chloro-2,3,14-trimethyl-7-{3-[(naphthalen-1-yl)oxy]propyl}-13,13-dioxo-10,11,12,13,14,15-hexahydro-2H-13λ^6-pyrazolo[3′,4′:4,5][1,2,8]thiadiazacycloundecino[6,7,8-hi]indole-8-carboxylic acid-N-ethylethanamine salt (Enantiomer 1)]",0.52 nM
5,"CCc1c2c(nn1C)CN(C)S(=O)(=O)CCCn1c(C(=O)O)c(CCCOc3cccc4cc(F)ccc34)c3ccc(F)c-2c31 (single isomer, unassigned; enantiomer 1) [Example 8, (+)-3-Ethyl-4-fluoro-7-{3-[(6-fluoronaphthalen-1-yl)oxy]propyl}-2,14-dimethyl-13,13-dioxo-10,11,12,13,14,15-hexahydro-2H-13λ^6-pyrazolo[3′,4′:4,5][1,2,8]thiadiazacycloundecino-[6,7,8-hi]indole-8-carboxylic acid (Enantiomer 1)]",1.7 nM
6,"CCc1c2c(nn1C)CN(C)S(=O)(=O)CCCn1c(C(=O)O)c(CCCOc3cccc4cc(F)ccc34)c3ccc(Cl)c-2c31 (single isomer, unassigned; enantiomer 1) [Example 36, (+)-4-chloro-3-ethyl-7-{3-[(6-fluoronaphthalen-1-yl)oxy]propyl}-2,14-dimethyl-13,13-dioxo-10,11,12,13,14,15-hexahydro-2H-13lambda^6-pyrazolo[3′,4′:4,5][1,2,8]thiadiazacycloundecino-[6,7,8-hi]indole-8-carboxylic acid (Enantiomer 1)]",0.6 nM
7,"Cc1c2c(nn1C)CN(C)S(=O)(=O)CCCn1c(C(=O)O)c(CCCOc3cccc4cc(F)ccc34)c3ccc(F)c-2c31 (single isomer, unassigned; enantiomer 1) [Example 38, (−)-4-fluoro-7-{3-[(6-fluoronaphthalen-1-yl)oxy]propyl}-2,3,14-trimethyl-13,13-dioxo-10,11,12,13,14,15-hexahydro-2H-13lambda^6-pyrazolo[3′,4′:4,5][1,2,8]thiadiazacycloundecino-[6,7,8-hi]indole-8-carboxylic acid (Enantiomer 1)]",23 nM
8,"Cc1c2c(nn1C)CN(C1CC1)S(=O)(=O)CCCn1c(C(=O)O)c(CCCOc3cccc4cc(F)ccc34)c3ccc(Cl)c-2c31 (single isomer, unassigned; enantiomer 1) [Example 42, (−)-4-chloro-14-cyclopropyl-7-{3-[(6-fluoro-1-naphthyl)oxy]propyl}-2,3-dimethyl-11,12,14,15-tetrahydro-2H,10H-pyrazolo[3′,4′:4,5][1,2,8]thiadiazacycloundecino[6,7,8-hi]indole-8-carboxylic acid 13,13-dioxide N-diethylamine salt (Enantiomer 1)]",0.34 nM
9,"Cc1c2c(nn1C)C(CCN1CCOCC1)N(C)S(=O)(=O)CCCn1c(C(=O)O)c(CCCOc3cccc4ccccc34)c3cccc-2c31 (single isomer, unassigned; enantiomer 1) [Example 45, 2,3,14-trimethyl-15-[2-(morpholin-4-yl)ethyl]-7-{3-[(naphthalen-1-yl)oxy]propyl}-13,13-dioxo-10,11,12,13,14,15-hexahydro-2H-13lambda^6-pyrazolo[3′,4′:4,5][1,2,8]thiadiazacycloundecino[6,7,8-hi]indole-8-carboxylic acid N-ethylethanamine Salt (Enantiomer 1)]",33 nM
